{"source": "paper PMC9088800", "about": "“Expanded LUXendin Color Palette for GLP1R Detection and Visualization In Vitro and In Vivo” (JACS Au, 2022)", "origin": "cited, not measured here", "details": "phase III trials, combined with lifestyle interventions", "description": "The glucagon-like peptide-1 receptor (GLP1R) is a class B G protein-coupled receptor involved in the regulation of glucose homeostasis, food intake, and inflammation.[1],[2] As such, GLP1R agonist (GLP1RA) therapy has become a mainstay of type-2 diabetes treatment during the past decade, with a number of drugs on the market based upon stabilized analogues of glucagon-like peptide-1.[3] Most recently, phase III trials of the third-generation semaglutide have shown a ∼15% reduction in body weight when combined with lifestyle interventions,[4] leading to the approval of GLP1RAs as the first nonsu ..."}
{"substance": "semaglutide", "values": [{"measurement": "Reduction in body weight", "result": "~15", "unit": "%"}]}
